What follows are molecules tested against T1, HMG-CoA reductase (Homo sapiens, UniProt P04035) (assay: HMG-CoA reductase (HMGCR) degradation in HepG2 cells by western blotting). Details: treated for 18 hours, ratio of HMG-CoA reductase to GAPDH, read-out: DC50.
T1 construct: endogenous in cells; host or cells: HepG2 (Korea Cell Line Bank)
T1 sequence (P04035 1-888): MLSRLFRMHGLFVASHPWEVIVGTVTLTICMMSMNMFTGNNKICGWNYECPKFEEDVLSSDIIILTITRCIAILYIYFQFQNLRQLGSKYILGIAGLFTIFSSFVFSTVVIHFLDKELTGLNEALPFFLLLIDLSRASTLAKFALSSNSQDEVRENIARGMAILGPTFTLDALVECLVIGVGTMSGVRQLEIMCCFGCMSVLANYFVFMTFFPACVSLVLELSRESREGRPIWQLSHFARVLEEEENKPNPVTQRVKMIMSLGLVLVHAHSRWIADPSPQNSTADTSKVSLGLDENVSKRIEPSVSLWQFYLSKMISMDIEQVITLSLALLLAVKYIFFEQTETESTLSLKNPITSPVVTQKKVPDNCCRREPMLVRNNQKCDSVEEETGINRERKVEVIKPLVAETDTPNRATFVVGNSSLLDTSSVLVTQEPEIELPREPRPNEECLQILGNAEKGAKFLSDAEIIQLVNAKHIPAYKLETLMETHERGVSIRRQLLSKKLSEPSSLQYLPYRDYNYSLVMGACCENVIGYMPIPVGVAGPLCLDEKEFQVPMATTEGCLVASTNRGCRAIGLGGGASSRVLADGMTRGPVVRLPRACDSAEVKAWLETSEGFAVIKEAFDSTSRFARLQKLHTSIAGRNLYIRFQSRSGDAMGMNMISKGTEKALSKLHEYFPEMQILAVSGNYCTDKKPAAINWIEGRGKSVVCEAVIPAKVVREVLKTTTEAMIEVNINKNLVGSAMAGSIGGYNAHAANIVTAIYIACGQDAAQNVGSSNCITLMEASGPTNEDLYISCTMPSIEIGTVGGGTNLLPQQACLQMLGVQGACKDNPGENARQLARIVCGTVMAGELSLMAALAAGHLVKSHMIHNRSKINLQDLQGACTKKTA
Format: cell-based
Method in brief: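 Western blot read-out: HMGCR protein probed (1:500, 16 hours at 4° C) alongside GAPDH loading control on 15 μg BCA-normalised RIPA lysates. Lysates came from HepG2 cells (P105–P110) exposed for 18 hours to a 10-point, three-fold series starting at 3 μM.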

Row | Compound | DC50 [nM]
1 | C[C@H]1C=C2C=C[C@H](C)[C@H](CC[C@@H]3C[C@@H](O[Si](C)(C)C(C)(C)C)CC(=O)O3)[C@H]2[C@@H](OC(=O)NCCCCN2CCC(Nc3cccc4c3C(=O)N(C3CCC(=O)NC3=O)C4=O)CC2)C1 (stereo partly drawn) [Compound 72, (1S,3R,7S,8S,8aR)-8-(2-((2R,4R)-4-((tert-butyldimethylsilyl)oxy)-6-oxotetrahydro-2H-pyran-2-yl)ethyl)-3,7-dimethyl-1,2,3,7,8,8a-hexahydronaphthalen-1-yl (4-(4-((2-(2,6-dioxopiperidin-3-yl)-1,3-dioxoisoindolin-4-yl)amino)piperidin-1-yl)butyl)carbamate] | < 50
2 | Cc1ncsc1-c1ccc(CNC(=O)[C@@H]2C[C@@H](O)CN2C(=O)[C@@H](NC(=O)COCCOCCOCCNC(=O)O[C@H]2C[C@@H](C)C=C3C=C[C@H](C)[C@H](CC[C@@H]4C[C@@H](O[Si](C)(C)C(C)(C)C)CC(=O)O4)[C@H]32)C(C)(C)C)cc1 [Compound 20, (1S,3R,7S,8S,8aR)-8-(2-((2R,4R)-4-((tert-butyldimethylsilyl)oxy)-6-oxotetrahydro-2H-pyran-2-yl)ethyl)-3,7-dimethyl-1,2,3,7,8,8a-hexahydronaphthalen-1-yl ((S)-13-((2S,4R)-4-hydroxy-2-((4-(4-methylthiazol-5-yl)benzyl)carbamoyl)pyrrolidine-1-carbonyl)-14,14-dimethyl-11-oxo-3,6,9-trioxa-12-azapentadecyl)carbamate] | < 50
3 | C[C@H]1C=C2C=C[C@H](C)[C@H](CC[C@@H]3C[C@@H](O)CC(=O)O3)[C@H]2[C@@H](OC(=O)C(C)(C)CCC(=O)NCCOCCOCCOCCNc2ccccc2)C1 [Compound 1, (1S,3R,7S,8S,8aR)-8-(2-((2R,4R)-4-hydroxy-6-oxotetrahydro-2H-pyran-2-yl)ethyl)-3,7-dimethyl-1,2,3,7,8,8a-hexahydronaphthalen-1-yl 16,16-dimethyl-13-oxo-1-(phenylamino)-3,6,9-trioxa-12-azaheptadecan-17-oate] | > 500
4 | C[C@H]1C=C2C=C[C@H](C)[C@H](CC[C@@H]3C[C@@H](O[Si](C)(C)C(C)(C)C)CC(=O)O3)[C@H]2[C@@H](OC(=O)NCc2ccc(OCCNc3cccc4c3C(=O)N(C3CCC(=O)NC3=O)C4=O)cc2)C1 (stereo partly drawn) [Compound 104, (1S,3R,7S,8S,8aR)-8-(2-((2R,4R)-4-((tert-butyldimethylsilyl)oxy)-6-oxotetrahydro-2H-pyran-2-yl)ethyl)-3,7-dimethyl-1,2,3,7,8,8a-hexahydronaphthalen-1-yl (4-(2-((2-(2,6-dioxopiperidin-3-yl)-1,3-dioxoisoindolin-4-yl)amino)ethoxy)benzyl)carbamate] | < 50
5 | C[C@H]1C=C2C=C[C@H](C)[C@H](CC[C@@H]3C[C@@H](O[Si](C)(C)C(C)(C)C)CC(=O)O3)[C@H]2[C@@H](OC(=O)NCCCCCCCCNc2cccc3c2C(=O)N(C2CCC(=O)NC2=O)C3=O)C1 (stereo partly drawn) [Compound 54, (1S,3R,7S,8S,8aR)-8-(2-((2R,4R)-4-((tert-butyldimethylsilyl)oxy)-6-oxotetrahydro-2H-pyran-2-yl)ethyl)-3,7-dimethyl-1,2,3,7,8,8a-hexahydronaphthalen-1-yl (8-((2-(2,6-dioxopiperidin-3-yl)-1,3-dioxoisoindolin-4-yl)amino)octyl)carbamate] | < 50

The next lines start with the values.

Row | DC50 [nM] | Compound
6 | 50 to 500 | Cc1ncsc1-c1ccc(CNC(=O)[C@@H]2C[C@@H](O)CN2C(=O)[C@@H](NC(=O)COCCNC(=O)O[C@H]2C[C@@H](C)C=C3C=C[C@H](C)[C@H](CC[C@@H]4C[C@@H](O)CC(=O)O4)[C@H]32)C(C)(C)C)cc1 [Compound 14, (1S,3R,7S,8S,8aR)-8-(2-((2R,4R)-4-hydroxy-6-oxotetrahydro-2H-pyran-2-yl)ethyl)-3,7-dimethyl-1,2,3,7,8,8a-hexahydronaphthalen-1-yl (2-(2-(((S)-1-((2S,4R)-4-hydroxy-2-((4-(4-methylthiazol-5-yl)benzyl)carbamoyl)pyrrolidin-1-yl)-3,3-dimethyl-1-oxobutan-2-yl)amino)-2-oxoethoxy)ethyl)carbamate]
7 | < 50 | Cc1ncsc1-c1ccc(CNC(=O)[C@@H]2C[C@@H](O)CN2C(=O)[C@@H](NC(=O)COCCOCCOCCNC(=O)O[C@H]2C[C@@H](C)C=C3C=C[C@H](C)[C@H](CC[C@@H]4C[C@@H](O)CC(=O)O4)[C@H]32)C(C)(C)C)cc1 [Compound 16, (1S,3R,7S,8S,8aR)-8-(2-((2R,4R)-4-hydroxy-6-oxotetrahydro-2H-pyran-2-yl)ethyl)-3,7-dimethyl-1,2,3,7,8,8a-hexahydronaphthalen-1-yl ((S)-13-((2S,4R)-4-hydroxy-2-((4-(4-methylthiazol-5-yl)benzyl)carbamoyl)pyrrolidine-1-carbonyl)-14,14-dimethyl-11-oxo-3,6,9-trioxa-12-azapentadecyl)carbamate]
8 | < 50 | C[C@H]1C=C2C=C[C@H](C)[C@H](CC[C@@H]3C[C@@H](O)CC(=O)O3)[C@H]2[C@@H](OC(=O)NCCOCCOCCOCC(=O)Nc2cccc3c2C(=O)N(C2CCC(=O)NC2=O)C3=O)C1 (stereo partly drawn) [Compound 99, (1S,3R,7S,8S,8aR)-8-(2-((2R,4R)-4-hydroxy-6-oxotetrahydro-2H-pyran-2-yl)ethyl)-3,7-dimethyl-1,2,3,7,8,8a-hexahydronaphthalen-1-yl (2-(2-(2-(2-((2-(2,6-dioxopiperidin-3-yl)-1,3-dioxoisoindolin-4-yl)amino)-2-oxoethoxy)ethoxy)ethoxy)ethyl)carbamate]
9 | < 50 | C[C@H]1C=C2C=C[C@H](C)[C@H](CC[C@@H]3C[C@@H](O)CC(=O)O3)[C@H]2[C@@H](OC(=O)NCCOCCOCCCNc2cccc3c2C(=O)N(C2CCC(=O)NC2=O)C3=O)C1 (stereo partly drawn) [Compound 93, (1S,3R,7S,8S,8aR)-8-(2-((2R,4R)-4-hydroxy-6-oxotetrahydro-2H-pyran-2-yl)ethyl)-3,7-dimethyl-1,2,3,7,8,8a-hexahydronaphthalen-1-yl (2-(2-(3-((2-(2,6-dioxopiperidin-3-yl)-1,3-dioxoisoindolin-4-yl)amino)propoxy)ethoxy)ethyl)carbamate]
10 | < 50 | C[C@H]1C=C2C=C[C@H](C)[C@H](CC[C@@H]3C[C@@H](O)CC(=O)O3)[C@H]2[C@@H](OC(=O)NCCC(=O)NCCOCCNc2cccc3c2C(=O)N(C2CCC(=O)NC2=O)C3=O)C1 (stereo partly drawn) [Compound 101, (1S,3R,7S,8S,8aR)-8-(2-((2R,4R)-4-hydroxy-6-oxotetrahydro-2H-pyran-2-yl)ethyl)-3,7-dimethyl-1,2,3,7,8,8a-hexahydronaphthalen-1-yl (3-((2-(2-((2-(2,6-dioxopiperidin-3-yl)-1,3-dioxoisoindolin-4-yl)amino)ethoxy)ethyl)amino)-3-oxopropyl)carbamate]
11 | < 50 | C[C@H]1C=C2C=C[C@H](C)[C@H](CC[C@@H]3C[C@@H](O)CC(=O)O3)[C@H]2[C@@H](OC(=O)N(C)CCOCCOCCNc2cccc3c2C(=O)N(C2CCC(=O)NC2=O)C3=O)C1 (stereo partly drawn) [Compound 83, (1S,3R,7S,8S,8aR)-8-(2-((2R,4R)-4-hydroxy-6-oxotetrahydro-2H-pyran-2-yl)ethyl)-3,7-dimethyl-1,2,3,7,8,8a-hexahydronaphthalen-1-yl (2-(2-(2-((2-(2,6-dioxopiperidin-3-yl)-1,3-dioxoisoindolin-4-yl)amino)ethoxy)ethoxy)ethyl)(methyl)carbamate]

Source: patent US12479840B2, “HMG-CoA reductase degradation inducing compound” (Uppthera, priority 2020, dated 2025)
